Results published in patent US9212168B2 (priority 2011, dated 2015).

The molecules below were run on HCV genotype 1a replicon (assay: HCV genotype 1a replicon assay (NS3 protease activity readout)). Conditions: HCV genotype 1a replicon.
Type: cell-based, hepatitis C virus
Method: Assay 2: HCV Genotype 1a Replicon Assay
The HCV genotype 1a replicon cell line was obtained from Apath LLC (APC89; Huh7.5 cell background). This subgenomic replicon contains the N-terminus of the HCV core protein fused to the neomycin-resistance selectable marker. The EMCV IRES lies downstream and drives expression of the non-structural proteins NS3-NS5B. Compound potencies were determined using the NS3-specific protease activity in lysates as a measurement of compound inhibition of replicon levels.
Cells were grown at 37° C. in a 5% CO2 humidified incubator in DMEM (Invitrogen) with 10% FBS (HyClone), 1×NEAA (Invitrogen), 1× Pen-Strep (Invitrogen), and 850 μg/mL G418 (Invitrogen). On day 1 of the assay, cells were plated at 15,000 cells/well in black 96-well tissue culture plates (Costar) in 200 μL media lacking G418. Four hours later, once the cells had adhered, the media was removed and replaced with media (no G418) containing dose-responses of test compounds. Compounds were initially diluted in DMSO and then diluted another 200× in media to bring the final DMSO concentration down to 0.5%. The cells were incubated with test compounds for 48 or 72 hours. At the end of the incubation period, media and compound were removed from the plates.
To determine the NS3-specific protease activity in lysates, the cells were lysed at room temperature in 50 μL/well of 50 mM Hepes pH 7.5, 150 mM NaCl, 15% Glycerol, 0.15% Triton X-100, 10 mM DTT for 20 minutes with shaking. 50 μL of an NS3/4a protease-specific FRET substrate (Anaspec RET S1 Cat#22991) was then added to the wells at a final concentration of 15 μM. The plates were incubated at 37° C. for 20 minutes, which corresponds to a timepoint at which the protease activity is still in the linear phase. Protease activity was determined by measuring fluorescence (Excitation: 340 nm; Emission: 509 nm).
To analyze the data, the fluorescence was plotted vs. the compound concentration, and EC50 values were determined from a 4-parameter robust fit model using GraphPad Prism software.

Row | Structure (SMILES) | Genotype 1a
1 | COC(=O)NC(C(=O)N1CC(OC)CC1c1nc(-c2ccc(-c3ccc(NC(=O)c4ccc(N5CCN(C(=O)C(C)(C)CO)CC5C)nc4)cc3OC(F)(F)F)cc2)c[nH]1)C(C)(C)O (stereo not drawn) [Example 16-17] | D (D represents pEC50>10 (EC50<0.1 nM))
2 | COC(=O)N[C@H](C(=O)N1C[C@@H](C)C[C@H]1c1nc(-c2ccc(-c3cc(Cl)c(NC(=O)c4ccc(N5CCN(C(=O)[C@H]6CCCN6S(C)(=O)=O)C[C@H]5C)nc4)cc3OC(F)(F)F)cc2)c[nH]1)C(C)C [Example 1-39] | D (D represents pEC50>10 (EC50<0.1 nM))
3 | COC(=O)N[C@H](C(=O)N1C[C@@H](C)C[C@H]1c1nc(-c2ccc(-c3ccc(C(=O)Nc4ccc(N5CCN(C(=O)C(C)(C)C)C[C@H]5C)nc4)cc3OC(F)F)cc2)c[nH]1)C1CCOCC1 [Example 25-5] | D (D represents pEC50>10 (EC50<0.1 nM))
4 | COC(=O)N[C@H](C(=O)N1C[C@@H](C)C[C@H]1c1nc(-c2ccc(-c3cc(Cl)c(NC(=O)c4ccc(N5CCN(C(=O)C6(C)CC6)C[C@H]5C)nc4)cc3OC(F)(F)F)cc2)c[nH]1)C(C)C [Example 1-80] | C (C represents pEC50 between and 9 and about 10, (EC50 between 1 nM and 0.1 nM))
5 | COC(=O)NC(C(=O)N1C(C)CCC1c1nc(-c2ccc(-c3ccc(C(=O)Nc4ccc(N5CCN(C(=O)C6CC6(C)C)CC5C)nc4)cc3OC(F)(F)F)cc2)c[nH]1)C(C)C (stereo not drawn) [Example 18-3] | C (C represents pEC50 between and 9 and about 10, (EC50 between 1 nM and 0.1 nM))
6 | COC(=O)N[C@@H](C(=O)N1C[C@@H](OC)C[C@H]1c1nc(-c2ccc(-c3cc(Cl)c(NC(=O)c4ccc(N5CCN(C(=O)C(C)(C)CO)C[C@H]5C)nc4)cc3C(F)(F)F)cc2)c[nH]1)C1CCCCC1 [Example 19-14] | A (A represents a pEC50 value between 6 and 8 (EC50 between 1 μM and 10 nM))
7 | COC(=O)N[C@H](C(=O)N1C[C@@H](C)C[C@H]1c1nc(-c2ccc(-c3cc(F)c(NC(=O)c4ccc(N5CCN(C(=O)C6CC67CC7)C[C@H]5C)nc4)cc3OC(F)(F)F)cc2)c[nH]1)C(C)C (stereo partly drawn) [Example 1-88] | D (D represents pEC50>10 (EC50<0.1 nM))
8 | COC(=O)NC(C(=O)N1C[C@@H](C)C[C@H]1c1nc(-c2ccc(-c3cc(Cl)c(NC(=O)c4ccc(N5CCN(C(=O)C(C)(C)CO)C[C@H]5C)nc4)cc3C(F)(F)F)cc2)c[nH]1)C1CCS(=O)(=O)CC1 (single isomer, unassigned) [Example 19-1] | D (D represents pEC50>10 (EC50<0.1 nM))
9 | COC(=O)N[C@H](C(=O)N1C[C@@H](C)C[C@H]1c1nc(-c2ccc(-c3ccc(NC(=O)c4ccc(N5CCN(C(=O)C(C)(C)C)C[C@H]5C)nc4)cc3C(F)(F)F)cc2)c[nH]1)C(C)C [Example 1-63] | D (D represents pEC50>10 (EC50<0.1 nM))
10 | COC(=O)NC(C(=O)N1CC(C)CC1c1nc(-c2ccc(-c3cc(Cl)c(NC(=O)c4ccc(N5CCN(C(=O)C(C)(C)C)CC5C)nc4)cc3C(F)(F)F)cc2)c[nH]1)C1CC(C)OC(C)C1 (stereo not drawn) [Example 19-10] | A (A represents a pEC50 value between 6 and 8 (EC50 between 1 μM and 10 nM))
11 | COC(=O)N[C@H](C(=O)N1C[C@@H](C)C[C@H]1c1nc(-c2ccc(-c3ccc(C(=O)Nc4ccc(N5C[C@H](C)N(C(=O)C6CC6C)C[C@H]5C)nc4)cc3OC(F)(F)F)cc2)c(Cl)[nH]1)C(C)C (stereo partly drawn) [Example 4-13] | C (C represents pEC50 between and 9 and about 10, (EC50 between 1 nM and 0.1 nM))
12 | COC(=O)N[C@H](C(=O)N1C[C@@H](OC)C[C@H]1c1nc(-c2ccc(-c3cc(Cl)c(NC(=O)c4ccc(N5CCN(C(=O)C(C)(C)C)C[C@H]5C)nc4)cc3C(F)(F)F)cc2)c[nH]1)C1CCOCC1 [Example 19-16] | D (D represents pEC50>10 (EC50<0.1 nM))
13 | COC(=O)N[C@H](C(=O)N1C[C@@H](C)C[C@H]1c1nc(-c2ccc(-c3cc(Cl)c(NC(=O)c4ccc(N5CCN(C(=O)C6CC6(Cl)Cl)C[C@H]5C)nc4)cc3OC(F)(F)F)cc2)c[nH]1)C(C)C (single isomer, unassigned) [Example 1-57] | D (D represents pEC50>10 (EC50<0.1 nM))
14 | COC(=O)N[C@H](C(=O)N1C[C@@H](C)C[C@H]1c1nc(-c2ccc(-c3cc(Cl)c(NC(=O)c4ccc(N5CCN(C(=O)[C@H]6CCCN6C(=O)C(C)(C)C)C[C@H]5C)nc4)cc3OC(F)(F)F)cc2)c[nH]1)C(C)C [Example 1-50] | D (D represents pEC50>10 (EC50<0.1 nM))
15 | COC(=O)N[C@H](C(=O)N1C[C@@H](C)C[C@H]1c1nc(-c2ccc(-c3cc(Cl)c(NC(=O)c4ccc(N5CCN(C(=O)[C@H]6CCCN6C(C)=O)C[C@H]5C)nc4)cc3OC(F)(F)F)cc2)c[nH]1)C(C)C [Example 1-47] | D (D represents pEC50>10 (EC50<0.1 nM))

Same assay, conditions: Hepatitis C virus, read-out: Genotype 1a, HCV genotype 1a replicon

Row | Structure (SMILES) | EC50
16 | COC(=O)N[C@H](C(=O)N1C[C@@H](C(N)=O)C[C@H]1c1nc(-c2ccc(-c3cc(Cl)c(NC(=O)c4ccc(N5CCN(C(=O)OC(C)(C)C)C[C@H]5C)nc4)cc3OC(F)(F)F)cc2)c[nH]1)C(C)C [Example 15-10] | 1 to 10 nM
17 | COC(=O)N[C@H](C(=O)N1C[C@@H](C)C[C@H]1c1nc(-c2ccc(-c3cc(Cl)c(NC(=O)c4ccc(N5CCN(C(=O)C6CCOCC6)C[C@H]5C)nc4)cc3OC(F)(F)F)cc2)c[nH]1)C(C)C [Example 12-27] | 0.1 to 1 nM
18 | COC(=O)N[C@H](C(=O)N1C[C@@H](C)C[C@H]1c1nc(-c2ccc(-c3cc(Cl)c(NC(=O)c4ccc(N5CCN(C(=O)C(C)(C)CNC(=O)C(C)(C)C)C[C@H]5C)nc4)cc3OC(F)(F)F)cc2)c[nH]1)C(C)C [Example 12-38] | 0.1 to 1 nM
19 | CCOCCC(C)(C)C(=O)N1CCN(c2ccc(C(=O)Nc3cc(OC(F)(F)F)c(-c4ccc(-c5c[nH]c([C@@H]6C[C@H](C)CN6C(=O)[C@@H](NC(=O)OC)C(C)C)n5)cc4)cc3Cl)cn2)[C@H](C)C1 [Example 12-3] | < 0.1 nM
20 | COC(=O)N[C@@H](C(=O)N1C[C@@H](C)C[C@H]1c1nc(-c2ccc(-c3cc(Cl)c(NC(=O)c4ccc(N5CCN(C(=O)C(C)(C)C)C[C@H]5C)nc4)cc3OC(F)(F)F)cc2)c[nH]1)C1CCCCC1 [Example 13-40] | 10 to 1000 nM
21 | CNC(=O)NCC(C)(C)C(=O)N1CCN(c2ccc(C(=O)Nc3cc(OC(F)(F)F)c(-c4ccc(-c5c[nH]c([C@@H]6C[C@H](C)CN6C(=O)[C@@H](NC(=O)OC)C(C)C)n5)cc4)cc3Cl)cn2)[C@H](C)C1 [Example 12-40] | < 0.1 nM
22 | COC(=O)N[C@H](C(=O)N1C[C@@H](C)C[C@H]1c1nc(-c2ccc(-c3cc(Cl)c(NC(=O)c4ccc(N5CCN(C(=O)C6CCCN6C(N)=O)C[C@H]5C)nc4)cc3OC(F)(F)F)cc2)c[nH]1)C(C)C (stereo partly drawn) [Example 12-6] | < 0.1 nM
23 | COC(=O)N[C@H](C(=O)N1C[C@@H](C)C[C@H]1c1nc(-c2ccc(-c3cc(Cl)c(NC(=O)c4ccc(N5CCN(C(=O)C(C)(C)CNC(C)=O)C[C@H]5C)nc4)cc3OC(F)(F)F)cc2)c[nH]1)C(C)C [Example 12-42] | < 0.1 nM
24 | COCC(=O)N1CCC[C@@]1(C)C(=O)N1CCN(c2ccc(C(=O)Nc3ccc(-c4ccc(-c5c[nH]c([C@@H]6CC7(CN6C(=O)[C@@H](NC(=O)OC)C(C)C)OCCO7)n5)cc4)c(OC(F)(F)F)c3)cn2)[C@H](C)C1 [Example 5-2] | < 0.1 nM
